According to patent US6716846B2, “High affinity ligands for nociceptin receptor ORL-1” (Schering Corporation, priority 1998, dated 2004):

Molecular target: human ORL-1 receptor (Homo sapiens, UniProt P41146)
Assay: Agonist activity: stimulation of [35S]-GTPγS binding
Type: biochemical
Conditions: compound at 100 nM

human ORL-1 receptor, sequence (P41146 whole entry): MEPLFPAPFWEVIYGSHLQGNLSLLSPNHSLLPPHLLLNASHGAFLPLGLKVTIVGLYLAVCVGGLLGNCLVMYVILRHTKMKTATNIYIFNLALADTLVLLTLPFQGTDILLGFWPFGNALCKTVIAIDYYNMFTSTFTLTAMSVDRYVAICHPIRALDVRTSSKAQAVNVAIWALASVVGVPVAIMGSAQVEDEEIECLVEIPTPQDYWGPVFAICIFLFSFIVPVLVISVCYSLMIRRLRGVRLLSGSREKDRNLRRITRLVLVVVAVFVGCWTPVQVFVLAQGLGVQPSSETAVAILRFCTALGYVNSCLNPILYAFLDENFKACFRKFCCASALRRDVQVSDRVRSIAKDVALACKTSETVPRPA

activation at 0.1 µM: 102%
SMILES: CNC(=O)NC1(c2ccccc2)CCN(C(c2ccccc2Cl)c2ccccc2Cl)CC1
